Measured values from patent publication US20140094413A1, “HEPATOCYTE GROWTH FACTOR (HGF) MIMICS AS THERAPEUTIC AGENTS” (WASHINGTON STATE UNIVERSITY, priority 2012, published 2014).
Values joined by “and” are separate entries in the source; they are usually repeats but may differ in a detail not shown here. Equal values may be shown once. Where a SMILES comes first, the peptide text is derived from it. [ ]: non-standard residue; d: D form. The star is where a group is joined. Nle = CCCC[C@H](N)C(=O)O; Hexanoyl = CCCCCC(=O)*; Ahx = NCCCCCC(=O)O

Columns and labels:
Assay type in all cases: cell-based, rat
hippocampal neurons [1] = test: Spinogenesis in mRFP-β-actin transfected dissociated hippocampal neurons; settings: for Spine numbers (spinogenesis) vs vehicle: 1 μM as printed in FIG. 34 legend; for Number of spines per 50 μm dendrite length: 10^−10 M; for Increase in the number of spines vs vehicle: 5 day treatment; for Spine density, dose dependence: 5 day stimulation, wide range of concentrations
Method: (§1) Hippocampal neurons (2×10^5 cells per square cm) were cultured from P1 Sprague Dawley rats on plates coated with poly-L-lysine from Sigma (St. Louis, Mo.; molecular weight 300,000). Hippocampal neurons were maintained in Neurobasal A media from Invitrogen (Carlsbad, Calif.) supplemented with B27 from Invitrogen, 0.5 mM L-glutamine, and […] cytosine-D-arabinofuranoside from Sigma added at 2 days in vitro. Hippocampal neurons were then cultured a further 3-7 days, at which time they were either transfected or treated with various pharmacological reagents as described in (Wayman, Davare et al. 2008).
(§2) Neurons were transfected with mRFP-β-actin on day in vitro 6 (DIV6) using LipofectAMINE™ 2000 (Invitrogen) according to the manufacturer's protocol. This protocol yielded the desired 3-5% transfection efficiency thus enabling the visualization of individual neurons. Higher efficiencies obscured the dendritic arbor of individual neurons. Expression of fluorescently tagged actin allowed clear visualization of dendritic spines, as dendritic spines are enriched in actin. […] On DIV 12 the neurons were fixed (4% paraformaldehyde, 3% sucrose, 60 mM PIPES, 25 mM HEPES, 5 mM EGTA, 1 mM MgCl2, pH 7.4) for 20 min at room temperature and mounted. Slides were dried for at least 20 hours at 4° C. and fluorescent images were obtained with Slidebook 4.2 Digital Microscopy Software driving an Olympus IX81 inverted confocal microscope with a 60× oil immersion lens, NA 1.4 and resolution 0.280 μm Dendritic spine density was measured on primary and secondary dendrites at a distance of at least 150 μm from the soma. Five 50 μm long segments of dendrite from at least 10 neurons per data point were analyzed for each data point reported. Each experiment was repeated at least three times using independent culture preparations. Dendrite length was determined using the National Institutes of Health's Image J 1.41o program (NIH, Bethesda, Md.) and the neurite tracing program Neuron J (Meijering, Jacob et al. 2004) Spines were manually counted.
as §1, with “centimeter)” for “cm)”, “P1-2” for “P1”, “the text or figure legends.” for “(Wayman, Davare et al. 2008).”
as §2, with “DIV12” for “DIV 12”, “Dendrite length was determined using the National Institutes of Health's Image J 1.41o program (NIH, Bethesda, Md.) and the neurite tracing program Neuron J (Meijering, Jacob et al. 2004) Spines were manually counted.” left out

hippocampal neurons [2] = test: Immunocytochemistry: correlation of spines with synaptic markers; settings: 10^−12 M, 5 days
Method: (§3) Transfected neurons were treated, fixed and stained. Briefly, cells were permeablized with 0.1% Triton X-100 detergent (Bio-Rad; Hercules, Calif.) for 10 minutes. An 8% bovine serum albumin (Intergen Company; Burlington, Mass.) in PBS was used to prevent non-specific binding for one hour at R.T.; Primary antibody incubations were at a 1:2500 dilution (see below) in 1% BSA in PBS at 4° C. overnight. Secondary antibody, 1:3000 Alexafluor 488 goat-anti-mouse (Invitrogen: Carlsbad, Calif.) was applied for two hours at room temperature. Coverslips were mounted with ProLong Gold anti-fade reagent (Invitrogen; Carlsbad, Calif.) and all washes were done with PBS. Imaging and analysis were performed as described above. For presynaptic excitatory transmission the VGLUT1 (Synaptic Systems, Goettingen, Germany) marker (Balschun, Moechars et al.) was employed and for general presynaptic transmission synapsin1 (Synaptic Systems, Goettingen, Germany) (Ferreira and Rapoport 2002) was applied. A postsynaptic function was established by PSD-95 (Milipore, Billerica, Mass.) (El-Husseini, Schnell et al. 2000). In each instance the total number of spines was counted for the treatment groups, control, Nle1-AngIV and Dihexa, to ensure an active phenotype. The total number of actin enriched spines adjacent to VGLUT1 or Synapsin were counted and converted to a percentage as the percent correlation of treatment-induced spines to presynaptic markers is a strong indicator of ability to transmit excitatory signals.
as §3, with “fixed and stained as previously described in Chapter two. Briefly, cells” for “fixed and stained. Briefly, cells”, “enriched spines (red) adjacent to” for “enriched spines adjacent to”

hippocampal neurons [3] = test: Whole-cell recordings of mEPSCs in dissociated hippocampal neurons; design: unit not given beside the values; settings: 5 days
[4] = 10^−12 M, acute 30 minute application on DIV 12

CCCCCC(=O)N[C@@H](Cc1ccc(O)cc1)C(=O)N[C@H](C(=O)NCCCCCC(N)=O)[C@@H](C)CC [Dihexa, N-hexanoic-Tyr-Ile-(6)-aminohexanoic amide] (Hexanoyl-Tyr-Ile-[Ahx]-NH2)
Concentration active in stimulating synaptogenesis (hippocampal neurons [1]): 10^−12 M
Spine numbers (spinogenesis) vs vehicle (hippocampal neurons [1]): dramatic increase in spine numbers
Number of spines per 50 μm dendrite length (hippocampal neurons [1]; 5 days): 11 spines per 50 μm dendrite length
Average spine head width (hippocampal neurons [1]; 10^−12 M): 0.80 μm
Increase in the number of spines vs vehicle (hippocampal neurons [1]; 10^−12 M): ~3 fold
Mean spine numbers per 50 μm dendrite length (hippocampal neurons [1]; [4]): 23.9 spines per 50 μm dendrite length
Spine density, dose dependence (hippocampal neurons [1]): dose-dependently stimulate spinogenesis
% Correlation PSD-95 (hippocampal neurons [2]): 98.71%
% Correlation Synapsin (hippocampal neurons [2]): 96.3%
% Correlation VGLUT1 (hippocampal neurons [2]): 94.4%
Number of spines/50 μm (PSD-95 experiment) (hippocampal neurons [2]): 43 spines/50 μm
Number of spines/50 μm (Synapsin experiment) (hippocampal neurons [2]): 37 spines/50 μm
Number of spines/50 μm (VGLUT1 experiment) (hippocampal neurons [2]): 44.2 spines/50 μm and 44 spines/50 μm
mEPSC mean frequency (hippocampal neurons [3]; 10^−12 M (each)): 6.75±0.99 and 8.25±0.56

CCCC[C@H](N)C(=O)N[C@@H](Cc1ccc(O)cc1)C(=O)N[C@H](C(=O)N[C@@H](Cc1c[nH]cn1)C(=O)N1CCC[C@H]1C(=O)N[C@@H](Cc1ccccc1)C(=O)O)[C@@H](C)CC [Nle1-AngIV, reference compound] (H-[Nle]YIHPF-OH; N-terminus and C-terminus assumed)
Spine numbers (spinogenesis) vs vehicle (hippocampal neurons [1]): dramatic increase in spine numbers
Number of spines per 50 μm dendrite length (hippocampal neurons [1]; 5 days): 22 spines per 50 μm dendrite length
Average spine head width (hippocampal neurons [1]; 10^−12 M): 0.87 μm
Increase in the number of spines vs vehicle (hippocampal neurons [1]; 10^−12 M): greater than 2 fold
Mean spine numbers per 50 μm dendrite length (hippocampal neurons [1]; [4]): 2.6 spines per 50 μm dendrite length
Spine density, dose dependence (hippocampal neurons [1]): dose-dependently stimulate spinogenesis
% Correlation PSD-95 (hippocampal neurons [2]): 97.38%
% Correlation Synapsin (hippocampal neurons [2]): 94.2%
% Correlation VGLUT1 (hippocampal neurons [2]): 95.1%
Number of spines/50 μm (PSD-95 experiment) (hippocampal neurons [2]): 36 spines/50 μm
Number of spines/50 μm (Synapsin experiment) (hippocampal neurons [2]): 31 spines/50 μm
Number of spines/50 μm (VGLUT1 experiment) (hippocampal neurons [2]): 39.4 spines/50 μm and 39 spines/50 μm

HGF: Hepatocyte growth factor, recombinant, purchased from R&D Systems
Mean spine numbers per 50 μm dendrite length (hippocampal neurons [1]; HGF 2.5 ng/ml (sub-threshold), 5 days): 18.6 spines per 50 μm dendrite leng and 16.5 spines per 50 μm dendrite leng
Mean spine numbers per 50 μm dendrite length (hippocampal neurons [1]; HGF 5 ng/ml, 5 days): 24.7 spines per 50 μm dendrite leng
Mean spine numbers per 50 μm dendrite length (hippocampal neurons [1]; HGF 10 ng/ml, 5 days): 27.5 spines per 50 μm dendrite leng and 29.3 spines per 50 μm dendrite leng
Mean spine numbers per 50 μm dendrite length (hippocampal neurons [1]; HGF 20 ng/ml, 5 days): 27.0 spines per 50 μm dendrite leng
mEPSC mean frequency (hippocampal neurons [3]; HGF 10 ng/ml): 7.09±0.53 and 9.66±0.20
